Data: patent publication US10457682B2, “Small molecules that bind MR1” (OREGON HEALTH & SCIENCE UNIVERSITY, priority 2016, dated 2019)
Entries after “also recorded” stand apart in the source; their conditions may differ. Where two headings read alike, the source gives them in different places.

Assays:
hpMR1 = hpMR1 (UniProt C1ITJ8+Q95460); details: tandem mass spectrometry; hpMR1-bac, +EC, +MS
Protocol: MR1 expressed in cells infected with two distinct microbes recognized by MR1Ts, E. coli and M. smegmatis, were analyzed by flow cytometry, ELISPOT assay, and mass spectrometry.
The presence and relative abundance of known MR1T ligands was assessed.
To further explore the MR1 ligandome, all ligands eluted from hpMR1-bac, +EC, and +MS were evaluated using LCMS. Fold increase was calculated for each ion/ligand in either hpMR1+MS or +EC compared to all other samples and plotted on volcano plots (FIG. 2A).
Global Natural Products Social Molecular Networking (GNPS) was used to assist in the identification of these novel ligands.

MR1T cell clone D426 G11 [1] = details: literature (Harriff 2016; Eckle 2014); cited from earlier work
MR1 = MR1 (Homo sapiens, UniProt Q95460); experiment: Binding of small molecule ligands to MR1
From the text: 6,7-dimethyl-5-deazalumazine (DZ) is a synthetic compound designed based on the structure and activity of FO and other known mycobacterial ligands for MR1. […] Photolumazines I and III are small molecule secondary metabolites produced by bacteria.
Binding can be detected by any procedure known to one skilled in the art, such as by physical or functional properties including cellular properties. Binding can also be detected by visualization of a label (such as a fluorescent label) conjugated to one of the molecules.
Disclosed herein is work reflecting the diversity of ligands bound by MR1 in the context of infection with different microbes. MR1 ligand diversity is detected by MR1T cells, as MR1 tetramers loaded with multiple bacterial ligands were broadly recognized by MR1T clones with distinct TCR arrangements and by PBMC from a panel of donors. […] While previous work has only identified a few riboflavin metabolites as activating MR1Ts, our results establishes that MR1 samples the broader microbial metabolome similar to how conventional MHC molecules sample the microbial peptidome and CD1 molecules sample microbial lipids and glycolipids.

MR1T clones = experiment: Ability of synthetic ligands to stimulate MR1T clones; format: cell-based, human
Protocol: (§1) To determine whether riboflavin, FO, PLI, and PLIII were antigens, they were tested for their ability to stimulate MR1T clones. […] (FIGS. 4A, 4B). […] To determine whether riboflavin or FO are also antagonistic, antigen presenting cells (APC) were pre-loaded with riboflavin or FO and then tested for their ability to present antigens from M. smegmatis supernatant (Msm-sup) to MR1Ts. […] PLI and PLIII were each tested for their ability to stimulate two MR1T clones with distinct TCRs.
(§2) FIGS. 4A, 4B, 4C, 4D: MR1T cell responses to synthetic ligands. A-B) MR1T cell clone D426 G11 responses to BEAS-2B cells incubated with FO (A, 10 μM, 30 μM, or 100 μM), or Riboflavin (B, 7.8 μM-500 μM) prior to addition of M. smegmatis supernatant (Msm-s) or PHA. C) MR1 cell clone D481 C7 responses to DC incubated with synthetic PLI, PLIII, RL-6,7,-diMe (DMRL), or RL-6-Me-7-OH (HMRL), at 1.56μM-200μM, or M. smegmatis (Msm), M. smegmatis supernatant (Msm-s), or PHA. D) Panel of MR1T cell clones or an HLA-B45-restricted T cell clone (D466 A10) incubated with 100 μM PLI, PLIII, DMRL, or HMRL.

MR1T cell clone D426 G11 [2] = experiment: Blocking of MR1T clone response to M. smegmatis supernatant after pre-loading antigen presenting cells; format: cell-based, human; details: for blocking of MR1T clone response to Msm-sup (MAIT cell activation): APC (BEAS-2B) pre-loaded with FO 10-100 μM or riboflavin 7.8-500 μM, then M. smegmatis supernatant
Protocol: as §1, §2

MR1T clone D481_C7 = experiment: MR1T cell clone D481 C7 responses to DC incubated with synthetic ligands; format: cell-based, human; details: for response of clone D481_C7: 100 μM ligand (FIG. 4D); for IFN-γ response of clone D481_C7: DC incubated with ligand at 1.56 μM-200 μM (FIG. 4C top)
Protocol: as §1
(§3) Given the striking differences in response between D481_C7 and D426_G11, we postulated that discrete TCR usage could be associated with ligand discrimination. To test this, an expanded panel of TCR diverse MR1T clones was tested for their ability to recognize each antigen. Every clone responded robustly to APC infected with M. smegmatis (FIG. 4D). […] In contrast, the D481_C7 responded to RL-6-Me-7-OH as well as RL-6,7-diMe, PLI, and PLIII. Because TRAV1-2 negative cells were stained with the hpMR1+EC tetramer, we also tested the ability of a recently described TRAV12-2 MR1T cell clone to respond to these ligands.
as §2

MR1T clone D426_G11 = experiment: MR1T cell clone D426_G11 responses to synthetic ligands; format: cell-based, human; details: FIG. 4C bottom
Protocol: as §1, §2

[3] = system: D481_F12 and D481_A9 MR1T cell clones; experiment: D481_F12 and D481_A9 MR1T cell clone responses to synthetic ligands; format: cell-based, human; details: 100 μM ligand (FIG. 4D)
Protocol: as §3, §2

[4] = system: D462_E4 TRAV12-2 MR1T cell clone; experiment: TRAV12-2 MR1T cell clone D462_E4 responses to synthetic ligands; format: cell-based, human; details: 100 μM ligand (FIG. 4D)
Protocol: as §3, §2

hpMR1, sequence (Q95460 23-201 limits assumed): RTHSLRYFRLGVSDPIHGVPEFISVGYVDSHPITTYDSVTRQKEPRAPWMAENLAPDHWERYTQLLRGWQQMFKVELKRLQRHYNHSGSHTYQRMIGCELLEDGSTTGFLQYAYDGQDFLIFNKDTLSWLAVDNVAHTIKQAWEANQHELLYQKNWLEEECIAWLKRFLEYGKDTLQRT
hpMR1, sequence (C1ITJ8 198-289 limits assumed): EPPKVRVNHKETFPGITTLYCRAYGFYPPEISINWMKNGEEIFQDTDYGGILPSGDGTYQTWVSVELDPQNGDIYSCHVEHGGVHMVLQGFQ
MR1, sequence (Q95460 23-341): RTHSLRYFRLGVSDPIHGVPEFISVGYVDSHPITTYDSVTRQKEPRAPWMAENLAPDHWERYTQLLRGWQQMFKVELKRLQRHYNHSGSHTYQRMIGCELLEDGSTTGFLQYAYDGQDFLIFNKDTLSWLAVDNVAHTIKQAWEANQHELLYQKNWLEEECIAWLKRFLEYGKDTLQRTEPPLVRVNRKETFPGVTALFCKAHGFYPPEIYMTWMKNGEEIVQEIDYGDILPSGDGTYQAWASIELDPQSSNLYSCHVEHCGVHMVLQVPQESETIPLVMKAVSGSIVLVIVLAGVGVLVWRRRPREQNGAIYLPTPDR
MR1, sequence (P61769 21-119 partner): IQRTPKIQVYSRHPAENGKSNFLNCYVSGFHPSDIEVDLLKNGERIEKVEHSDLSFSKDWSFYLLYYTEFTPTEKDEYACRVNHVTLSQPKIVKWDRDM

O=CC=Nc1c(NC[C@H](O)[C@H](O)[C@H](O)CO)[nH]c(=O)[nH]c1=O [5-OE-RU, 5-(2-oxoethylideneamino)-6-D-ribitylaminouracil]
presence among ligands eluted from hpMR1 preparations (hpMR1): not found in these hpMR1 preparations

Nc1nc2ncc(C=O)nc2c(=O)[nH]1 [6-FP]
antagonism of MR1T activation (MR1T cell clone D426 G11 [1]): antagonizes MR1T activation

Cc1cc2c(=O)[nH]c(=O)[nH]c2nc1C [DZ, 6,7-dimethyl-5-deazalumazine]
binding to MR1 / MR1 ligand (MR1): binds MR1
ability to stimulate MR1T clones (MR1T cell activation) (MR1T clones): activates MR1 restricted T cells

O=c1nc2n(C[C@H](O)[C@H](O)[C@H](O)CO)c3cc(O)ccc3cc-2c(=O)[nH]1 [FO]
binding to MR1 / MR1 ligand (MR1): binds MR1; also recorded: confirmed these molecules as novel MR1 ligands
ability to stimulate MR1T clones (MR1T cell activation) (MR1T clones): Neither riboflavin nor FO was capable of MR1T cell activation
blocking of MR1T clone response to Msm-sup (MAIT cell activation) (MR1T cell clone D426 G11 [2]): blocks the activation of MAIT cells; also recorded: blocked the MR1T clone response to Msm-sup
antagonist potency relative to riboflavin (amount required to reach 50% inhibition) (MR1T cell clone D426 G11 [2]; pre-incubation of APC, response to Msm-sup): less FO was required to reach 50% inhibition

O=c1nc2n(C[C@H](O)[C@H](O)[C@H](O)CO)c(O)c(-c3c[nH]c4ccccc34)nc-2c(=O)[nH]1 [PLIII]
binding to MR1 / MR1 ligand (MR1): confirmed these molecules as novel MR1 ligands
binding to MR1 / MR1 ligand (MR1; listed as Photolumazine III): bind MR1
ability to stimulate MR1T clones (MR1T cell activation) (MR1T clones): antigenic
ability to stimulate MR1T clones (MR1T cell activation) (MR1T clones; listed as Photolumazine III): activated MR1 restricted T cells
response of clone D481_C7 (MR1T clone D481_C7): responded
IFN-γ response of clone D481_C7 (MR1T clone D481_C7): potent activating ligands similar to RL-6,7-diMe
IFN-γ response of clone D426_G11 (MR1T clone D426_G11): only modest responses
recognition by D481_F12 and D481_A9 MR1T cell clones [3]: modest or no recognition
response of D462_E4 TRAV12-2 MR1T cell clone [4]: comparable responses to RL-6-Me-7-OH and PLI that were greater than PLIII

O=C(O)CCc1nc2c(=O)[nH]c(=O)nc-2n(C[C@H](O)[C@H](O)[C@H](O)CO)c1O [PLI]
binding to MR1 / MR1 ligand (MR1): confirmed these molecules as novel MR1 ligands
binding to MR1 / MR1 ligand (MR1; listed as Photolumazine I): bind MR1
ability to stimulate MR1T clones (MR1T cell activation) (MR1T clones): antigenic
ability to stimulate MR1T clones (MR1T cell activation) (MR1T clones; listed as Photolumazine I): activated MR1 restricted T cells
response of clone D481_C7 (MR1T clone D481_C7): responded
IFN-γ response of clone D481_C7 (MR1T clone D481_C7): potent activating ligands similar to RL-6,7-diMe
IFN-γ response of clone D426_G11 (MR1T clone D426_G11): only modest responses
recognition by D481_F12 and D481_A9 MR1T cell clones [3]: modest or no recognition
response of D462_E4 TRAV12-2 MR1T cell clone [4]: comparable responses to RL-6-Me-7-OH and PLI that were greater than PLIII
presence among ligands eluted from hpMR1 preparations (hpMR1): unique to hpMR1+MS

Cc1nc2c(=O)[nH]c(=O)nc-2n(C[C@H](O)[C@H](O)[C@H](O)CO)c1C [RL-6,7-diMe, reference compound]
response of clone D481_C7 (MR1T clone D481_C7): responded
recognition by D481_F12 and D481_A9 MR1T cell clones [3]: responded
response of D462_E4 TRAV12-2 MR1T cell clone [4]: did not respond
presence among ligands eluted from hpMR1 preparations (hpMR1): not found in these hpMR1 preparations

Cc1nc2c(=O)[nH]c(=O)nc-2n(C[C@H](O)[C@H](O)[C@H](O)CO)c1O [RL-6-Me-7-OH, reference compound]
response of clone D481_C7 (MR1T clone D481_C7): responded
recognition by D481_F12 and D481_A9 MR1T cell clones [3]: modest or no recognition
response of D462_E4 TRAV12-2 MR1T cell clone [4]: comparable responses to RL-6-Me-7-OH and PLI that were greater than PLIII

Cc1cc2nc3c(=O)[nH]c(=O)nc-3n(C[C@H](O)[C@H](O)[C@H](O)CO)c2cc1C [riboflavin, reference compound]
binding to MR1 / MR1 ligand (MR1): confirmed these molecules as novel MR1 ligands
ability to stimulate MR1T clones (MR1T cell activation) (MR1T clones): Neither riboflavin nor FO was capable of MR1T cell activation
blocking of MR1T clone response to Msm-sup (MAIT cell activation) (MR1T cell clone D426 G11 [2]): blocked the MR1T clone response to Msm-sup
